According to patent US20100267561A1, “HERBICIDAL PYRIDAZINONE DERIVATIVES” (priority 2007, published 2010):

Legend:
Assay type in all cases: in vivo
[1] = system: woolly cupgrass (Eriochloa villosa); experiment: Test B pre-/postemergence plant response; conditions: for Cupgrass, Woolly plant response rating: 8 g ai/ha
Outline: (§1)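 Visual scoring from 0 (no effect) to 100 (complete control) against untreated controls was done 13 to 15 days after greenhouse treatment. Chemicals were formulated in a surfactant-containing non-phytotoxic solvent and applied to soil preemergence or to 1- to 4-leaf (2-18 cm) plants postemergence.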

[2] = system: cocklebur (Xanthium strumarium); experiment: Test B pre-/postemergence plant response; conditions: for Cocklebur plant response rating: 8 g ai/ha
Outline: as §1

[3] = system: catchweed bedstraw (Galium aparine); experiment: Test B pre-/postemergence plant response; conditions: Preemergence
Outline: as §1

[4] = system: common (oilseed) sunflower (Helianthus annuus); experiment: Test B pre-/postemergence plant response; conditions: Preemergence
Outline: as §1

[5] = system: green foxtail (Setaria viridis); experiment: Test B pre-/postemergence plant response; conditions: for Foxtail, Green plant response rating: 8 g ai/ha
Outline: as §1

[6] = system: Russian thistle (Salsola iberica); experiment: Test B pre-/postemergence plant response; conditions: Preemergence
Outline: as §1

[7] = system: velvetleaf (Abutilon theophrasti); experiment: Test B pre-/postemergence plant response; conditions: for Velvetleaf plant response rating: 8 g ai/ha
Outline: as §1

[8] = system: downy bromegrass (Bromus tectorum); experiment: Test B pre-/postemergence plant response; conditions: for Bromegrass, Downy plant response rating: 8 g ai/ha
Outline: as §1

[9] = system: goosegrass (Eleusine indica); experiment: Test B pre-/postemergence plant response; conditions: for Goosegrass plant response rating: 8 g ai/ha
Outline: as §1

soybean (Glycine max) = experiment: Test B pre-/postemergence plant response; conditions: for Soybean plant response rating: 8 g ai/ha
Outline: as §1

[10] = system: wheat (Triticum aestivum); experiment: Test B pre-/postemergence plant response; conditions: for Wheat plant response rating: 8 g ai/ha
Outline: as §1

[11] = system: pigweed (Amaranthus retroflexus); experiment: Test B pre-/postemergence plant response; conditions: for Pigweed plant response rating: 8 g ai/ha
Outline: as §1

[12] = system: large crabgrass (Digitaria sanguinalis); experiment: Test B pre-/postemergence plant response; conditions: for Crabgrass, Large plant response rating: 8 g ai/ha
Outline: as §1

rice (Oryza sativa) = experiment: Test B flooded paddy test plant response
Outline: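 Paddy-water application to 2-leaf plants in pots held under 3 cm of flooding; response is a 0–100 visual control rating against controls after 13 to 15 days, and a dash marks a missing result.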

[13] = Postemergence, 16 g ai/ha, scale 0 to 100
[14] = Postemergence, 31 g ai/ha, scale 0 to 100, 0 no effect, 100 complete control
[15] = Postemergence, 62 g ai/ha, scale 0 to 100, 0 no effect, 100 complete control
[16] = Preemergence, 16 g ai/ha, scale 0 to 100 (0 no effect, 100 complete control)
[17] = Preemergence, 31 g ai/ha, 0 to 100 scale, 0 no effect, 100 complete control
[18] = Preemergence, 62 g ai/ha, scale 0 to 100
[19] = 16 g ai/ha, scale 0 to 100 (0 no effect, 100 complete control)
[20] = 31 g ai/ha, 0 to 100 scale, 0 no effect, 100 complete control

Cc1cc(-c2ccc(Cl)cc2)nn1-c1c(OC(=O)c2ccccc2Cl)cnn(C)c1=O [Compound 38]
Cupgrass, Woolly plant response rating ([1]; postemergence, 0-100 scale): 70 | Plant response rating, Cupgrass, Woolly [1, 13]: 98 | Plant response rating, Cupgrass, Woolly [1, 14]: 100 | Plant response rating, Cupgrass, Woolly [1, 15]: 100 | Plant response rating, Cupgrass, Woolly [1, 16]: 50 | Plant response rating, Cupgrass, Woolly [1, 17]: 90 | Plant response rating, Cupgrass, Woolly [1, 18]: 100 | Cupgrass, Woolly plant response rating ([1]; Preemergence, scale 0 to 100): 0 | Cocklebur plant response rating ([2]; postemergence, 0-100 scale): 0 | Plant response rating, Cocklebur [2, 13]: 0 | Plant response rating, Cocklebur [2, 14]: 0 | Plant response rating, Cocklebur [2, 15]: 0 | Plant response rating, Cocklebur [2, 16]: 0 | Plant response rating, Cocklebur [2, 17]: 0 | Plant response rating, Cocklebur [2, 18]: 0 | Cocklebur plant response rating ([2]; Preemergence, scale 0 to 100): 0 | Plant response rating, Galium [3, 19]: 0 | Plant response rating, Galium [3, 20]: 0 | Plant response rating, Galium ([3]; 62 g ai/ha, scale 0 to 100): 0 | Galium plant response rating ([3]; 8 g ai/ha, scale 0 to 100): 0 | Plant response rating, Sunflower [4, 19]: 0 | Plant response rating, Sunflower [4, 20]: 0 | Plant response rating, Sunflower ([4]; 62 g ai/ha, scale 0 to 100): 0 | Sunflower plant response rating ([4]; 8 g ai/ha, scale 0 to 100): 0 | Foxtail, Green plant response rating ([5]; postemergence, 0-100 scale): 30 | Plant response rating, Foxtail, Green [5, 13]: 75 | Plant response rating, Foxtail, Green [5, 14]: 80 | Plant response rating, Foxtail, Green [5, 15]: 98 | Plant response rating, Foxtail, Green [5, 16]: 100 | Plant response rating, Foxtail, Green [5, 17]: 100 | Plant response rating, Foxtail, Green [5, 18]: 100 | Foxtail, Green plant response rating ([5]; Preemergence, scale 0 to 100): 30 | Plant response rating, Russian Thistle [6, 19]: 0 | Plant response rating, Russian Thistle [6, 20]: 0 | Plant response rating, Russian Thistle ([6]; 62 g ai/ha, scale 0 to 100): 0 | Russian Thistle plant response rating ([6]; 8 g ai/ha, scale 0 to 100): 0 | Velvetleaf plant response rating ([7]; postemergence, 0-100 scale): 0 | Plant response rating, Velvetleaf [7, 13]: 0 | Plant response rating, Velvetleaf [7, 15]: 0 | Plant response rating, Velvetleaf [7, 16]: 0 | Plant response rating, Velvetleaf [7, 17]: 0 | Plant response rating, Velvetleaf [7, 18]: 0 | Velvetleaf plant response rating ([7]; Preemergence, scale 0 to 100): 0 | Bromegrass, Downy plant response rating ([8]; postemergence, 0-100 scale): 30 | Plant response rating, Bromegrass, Downy [8, 13]: 45 | Plant response rating, Bromegrass, Downy [8, 14]: 50 | Plant response rating, Bromegrass, Downy [8, 15]: 60 | Plant response rating, Bromegrass, Downy [8, 16]: 55 | Plant response rating, Bromegrass, Downy [8, 17]: 60 | Plant response rating, Bromegrass, Downy [8, 18]: 90 | Bromegrass, Downy plant response rating ([8]; Preemergence, scale 0 to 100): 55 | Goosegrass plant response rating ([9]; postemergence, 0-100 scale): 100 | Plant response rating, Goosegrass [9, 13]: 100 | Plant response rating, Goosegrass [9, 14]: 100 | Plant response rating, Goosegrass [9, 15]: 100 | Plant response rating, Goosegrass [9, 16]: 85 | Plant response rating, Goosegrass [9, 17]: 95 | Plant response rating, Goosegrass [9, 18]: 95 | Goosegrass plant response rating ([9]; Preemergence, scale 0 to 100): 45 | Soybean plant response rating (soybean (Glycine max); postemergence, 0-100 scale): 0 | Plant response rating, Soybean (soybean (Glycine max); [13]): 0 | Plant response rating, Soybean (soybean (Glycine max); [15]): 0 | Plant response rating, Soybean (soybean (Glycine max); [16]): 0 | Plant response rating, Soybean (soybean (Glycine max); [17]): 0 | Plant response rating, Soybean (soybean (Glycine max); [18]): 0 | Soybean plant response rating (soybean (Glycine max); Preemergence, scale 0 to 100): 0 | Wheat plant response rating ([10]; postemergence, 0-100 scale): 10 | Plant response rating, Wheat [10, 13]: 45 | Plant response rating, Wheat [10, 15]: 95 | Plant response rating, Wheat [10, 16]: 0 | Plant response rating, Wheat [10, 17]: 0 | Plant response rating, Wheat [10, 18]: 90 | Wheat plant response rating ([10]; Preemergence, scale 0 to 100): 0 | Pigweed plant response rating ([11]; postemergence, 0-100 scale): 0 | Plant response rating, Pigweed [11, 13]: 0 | Plant response rating, Pigweed [11, 14]: 0 | Plant response rating, Pigweed [11, 15]: 0 | Plant response rating, Pigweed [11, 16]: 0 | Plant response rating, Pigweed [11, 17]: 0 | Plant response rating, Pigweed [11, 18]: 0 | Pigweed plant response rating ([11]; Preemergence, scale 0 to 100): 0 | Crabgrass, Large plant response rating ([12]; postemergence, 0-100 scale): 70 | Plant response rating, Crabgrass, Large [12, 13]: 70 | Plant response rating, Crabgrass, Large [12, 14]: 90 | Plant response rating, Crabgrass, Large [12, 15]: 100 | Plant response rating, Crabgrass, Large [12, 16]: 98 | Plant response rating, Crabgrass, Large [12, 17]: 100 | Plant response rating, Crabgrass, Large [12, 18]: 100 | Crabgrass, Large plant response rating ([12]; Preemergence, scale 0 to 100): 45 | Plant response rating, Rice (rice (Oryza sativa); Flood (flooded paddy test), 62 g ai/ha, scale 0 to 100, 0 no effect, 100 complete control): 75 | Plant response rating, Rice (rice (Oryza sativa); Flood (flooded paddy test), 125 g ai/ha, scale 0 to 100, 0 no effect, 100 complete control): 75 | Plant response rating, Rice (rice (Oryza sativa); Flood (flooded paddy test), 250 g ai/ha, scale 0 to 100, 0 no effect, 100 complete control): 85 | Plant response rating, Rice (rice (Oryza sativa); Flood, 31 g ai/ha, scale 0 to 100): 0
